Earlier results, collected in patent US4988517A, “Method and composition for inhibiting colon carcinogenesis” (American Health Foundation, priority 1988, dated 1991).

Legend:
[1] = 6 ppm selenium in the form of selenomethionine; cited from earlier work
[2] = test system: cancer induced by a variety of chemical carcinogens; conditions: diet or drinking water; colon, mammary gland, pancreas; cited from earlier work
[3] = test system: colon carcinogenesis; conditions: initiation phase; cited from earlier work
[4] = rat, in vivo; cited from earlier work

| SMILES | Liver damage [1] | Protection against cancer induction [2] | Inhibition of colon carcinogenesis [3] | Toxicity relative to BSC [4] |
| --- | --- | --- | --- | --- |
| C[Se]CC[C@H](N)C(=O)O [selenomethionine] | caused liver damage as indicated by extensive necrosis and fibrosis |  |  |  |
| O=[Se](O)O [sodium selenite] |  | protects against cancer induced by a variety of chemical carcinogens | does not inhibit colon carcinogenesis during the initiation phase | more toxic than BSC |
